Data on 1 compound can be found in PMC2709563 (Nucleic Acids Research, 2009).

Molecules are shown by their SMILES.

In this assay the target is Klenow fragment of DNA polymerase I (Escherichia coli, UniProt P00582). Briefly: competitive fluorescence anisotropy displacement of dtC^OTP. The assay is classed as binding. A general note: Fluorescence polarisation rises when a labelled molecule tumbles more slowly, as on binding a larger partner.
Chain of Klenow fragment of DNA polymerase I (P00582 324-928 limits assumed): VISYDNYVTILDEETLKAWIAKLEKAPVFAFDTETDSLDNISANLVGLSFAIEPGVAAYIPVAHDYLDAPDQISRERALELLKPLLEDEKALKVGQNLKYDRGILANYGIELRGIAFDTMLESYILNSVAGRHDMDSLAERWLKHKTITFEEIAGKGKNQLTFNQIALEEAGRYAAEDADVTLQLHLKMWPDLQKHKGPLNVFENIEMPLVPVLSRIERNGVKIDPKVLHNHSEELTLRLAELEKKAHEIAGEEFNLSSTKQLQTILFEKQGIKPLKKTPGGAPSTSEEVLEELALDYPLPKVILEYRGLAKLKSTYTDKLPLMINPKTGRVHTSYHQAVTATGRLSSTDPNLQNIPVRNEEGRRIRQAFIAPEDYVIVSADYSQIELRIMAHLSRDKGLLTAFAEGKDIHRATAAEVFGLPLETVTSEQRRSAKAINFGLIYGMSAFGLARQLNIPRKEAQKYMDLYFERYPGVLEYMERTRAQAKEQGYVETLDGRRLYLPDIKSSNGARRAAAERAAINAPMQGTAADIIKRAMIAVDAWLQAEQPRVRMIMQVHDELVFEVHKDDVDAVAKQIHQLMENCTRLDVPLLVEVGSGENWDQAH

Compound `Nc1ccn([C@H]2C[C@H](O)[C@@H](COP(=O)(O)OP(=O)(O)OP(=O)(O)O)O2)c(=O)n1` [dCTP] yielded an IC50 of 3.4 µM.

The term IC50 denotes the midpoint of a concentration-inhibition curve.
